Measurements published in ChEMBL document CHEMBL1201862, “PubChem BioAssay data set” (2004).
Activity calls are given as the source filed them.

Assays:
[1] = target: SWI/SNF-related matrix-associated actin-dependent regulator of chromatin subfamily A member 2 (Homo sapiens, UniProt P51531); test: Luminescence-based cell-based high throughput dose response assay to identify activators of the function of SWI/SNF related, matrix associated, actin dependent regulator of chromatin, subfamily a, member 2 (SMARCA2, BRM).; format: functional
SWI/SNF-related matrix-associated actin-dependent regulator of chromatin subfamily A member 2, sequence (P51531 whole entry): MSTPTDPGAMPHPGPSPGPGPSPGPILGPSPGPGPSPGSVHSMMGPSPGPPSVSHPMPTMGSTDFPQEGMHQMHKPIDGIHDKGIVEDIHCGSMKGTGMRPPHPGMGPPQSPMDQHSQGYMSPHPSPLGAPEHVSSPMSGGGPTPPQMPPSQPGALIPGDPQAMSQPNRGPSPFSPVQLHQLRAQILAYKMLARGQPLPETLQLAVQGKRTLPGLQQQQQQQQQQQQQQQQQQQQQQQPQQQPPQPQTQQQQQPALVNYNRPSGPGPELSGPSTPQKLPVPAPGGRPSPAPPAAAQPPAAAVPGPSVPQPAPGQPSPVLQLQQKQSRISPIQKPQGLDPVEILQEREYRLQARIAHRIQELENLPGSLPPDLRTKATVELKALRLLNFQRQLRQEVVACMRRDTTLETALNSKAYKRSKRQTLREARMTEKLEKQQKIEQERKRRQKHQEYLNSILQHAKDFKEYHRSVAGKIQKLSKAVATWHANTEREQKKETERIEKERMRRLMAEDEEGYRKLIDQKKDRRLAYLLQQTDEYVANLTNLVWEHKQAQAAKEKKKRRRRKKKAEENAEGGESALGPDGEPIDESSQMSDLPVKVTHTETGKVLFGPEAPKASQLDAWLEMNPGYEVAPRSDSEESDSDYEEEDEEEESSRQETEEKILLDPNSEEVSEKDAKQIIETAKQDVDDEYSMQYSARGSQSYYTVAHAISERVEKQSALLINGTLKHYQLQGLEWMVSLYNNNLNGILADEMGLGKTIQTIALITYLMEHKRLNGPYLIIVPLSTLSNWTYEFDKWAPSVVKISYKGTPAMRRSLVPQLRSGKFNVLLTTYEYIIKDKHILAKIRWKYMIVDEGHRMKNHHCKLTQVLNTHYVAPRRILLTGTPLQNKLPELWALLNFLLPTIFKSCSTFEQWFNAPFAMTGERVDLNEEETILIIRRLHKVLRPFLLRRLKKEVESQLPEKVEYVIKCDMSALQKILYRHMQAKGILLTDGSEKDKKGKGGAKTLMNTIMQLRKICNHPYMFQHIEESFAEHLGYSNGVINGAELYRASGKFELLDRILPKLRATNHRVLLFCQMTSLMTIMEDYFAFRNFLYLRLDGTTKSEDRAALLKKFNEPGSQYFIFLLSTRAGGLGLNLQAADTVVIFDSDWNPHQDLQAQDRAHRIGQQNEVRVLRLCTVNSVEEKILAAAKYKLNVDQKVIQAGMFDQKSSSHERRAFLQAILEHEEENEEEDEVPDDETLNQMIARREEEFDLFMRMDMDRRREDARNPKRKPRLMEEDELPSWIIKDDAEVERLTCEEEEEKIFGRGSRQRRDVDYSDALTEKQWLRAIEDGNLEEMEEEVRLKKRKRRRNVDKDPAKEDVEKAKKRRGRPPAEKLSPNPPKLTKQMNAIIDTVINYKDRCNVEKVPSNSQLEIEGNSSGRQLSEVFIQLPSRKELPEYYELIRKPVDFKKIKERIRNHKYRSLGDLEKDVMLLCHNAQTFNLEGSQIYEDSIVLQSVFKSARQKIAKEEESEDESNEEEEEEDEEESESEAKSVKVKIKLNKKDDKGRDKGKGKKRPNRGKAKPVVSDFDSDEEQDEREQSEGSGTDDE

[2] = Counterscreen for activators of the function of SWI/SNF related, matrix associated, actin dependent regulator of chromatin, subfamily a, member 2 (SMARCA2, BRM): Luminescence-based cell-based high throughput dose response assay to identify non-selective compounds using the VP16 reporter assay.; format: functional
[3] = target: T1, DNA repair protein RAD52 homolog (Homo sapiens, UniProt P43351); format: functional, biochemical
T1 sequence (P43351 whole entry): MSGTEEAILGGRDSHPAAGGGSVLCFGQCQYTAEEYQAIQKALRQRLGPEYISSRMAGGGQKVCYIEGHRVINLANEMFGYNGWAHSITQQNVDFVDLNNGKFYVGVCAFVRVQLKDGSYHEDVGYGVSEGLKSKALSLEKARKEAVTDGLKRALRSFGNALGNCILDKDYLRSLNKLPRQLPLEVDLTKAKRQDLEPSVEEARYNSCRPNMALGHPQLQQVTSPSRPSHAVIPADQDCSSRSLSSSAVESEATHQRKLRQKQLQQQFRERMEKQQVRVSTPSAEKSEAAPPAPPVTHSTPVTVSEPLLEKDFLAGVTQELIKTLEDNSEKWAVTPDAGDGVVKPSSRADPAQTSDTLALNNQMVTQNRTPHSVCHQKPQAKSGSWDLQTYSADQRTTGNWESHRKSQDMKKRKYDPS

[4] = target: T2, Trace amine-associated receptor 1 (Homo sapiens, UniProt Q96RJ0); test: Counterscreen for agonists of the human trace amine associated receptor 1 (hTAAR1): Fluorescence-based cell-based high throughput dose response assay to identify hTAAR1 agonist that also desensitize TAAR1 receptor response.; format: functional
T2 sequence (Q96RJ0 whole entry): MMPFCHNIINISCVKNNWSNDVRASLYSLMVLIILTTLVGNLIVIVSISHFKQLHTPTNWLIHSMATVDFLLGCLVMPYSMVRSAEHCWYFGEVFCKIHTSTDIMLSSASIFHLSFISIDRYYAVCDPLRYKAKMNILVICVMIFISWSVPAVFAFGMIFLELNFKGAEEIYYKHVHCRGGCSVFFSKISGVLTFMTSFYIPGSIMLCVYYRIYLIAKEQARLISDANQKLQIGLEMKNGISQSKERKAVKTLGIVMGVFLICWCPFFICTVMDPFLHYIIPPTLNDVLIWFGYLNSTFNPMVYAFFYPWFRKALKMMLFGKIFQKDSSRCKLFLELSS

cells [5] = format: functional, cell-based
cells [6] = format: functional, cell-based; remark: listed apart in the source
[7] = target: T2, Trace amine-associated receptor 1; test: Fluorescence-based cell-based high throughput dose response assay to identify agonists of the human trace amine associated receptor 1 (TAAR1).; format: functional
[8] = ADAM10 inhibitors, peptide cleavage, dose response, biochemical, QFRET (AID 743254);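 note: ADAM10 enzyme with the DM2 quenched FRET peptide as substrate; EDANS fluorescence gain as the protease cuts the substrate; inhibitor potency against ADAM10 proteolytic activity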
[9] = miR-122 activators in hepatoma reporter cells, dose response, cell-based, Huh7 psiCHECK-miR122, Renilla luciferase, cherry-picked (AID 651956); format: functional;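 note: huh7 hepatoma cells stably carrying a psiCHECK-2 miR-122 sensor plasmid; renilla luciferase signal reporting endogenous miR-122 activity after 48 h compound exposure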
[10] = HEK293T cytotoxicity, dose response, cytotoxicity control for miR-122 modulator project, cell-based, activator set, cherry-pick (AID 720690); format: functional;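 note: HEK293T human cells scored for general mammalian cytotoxicity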
[11] = LGR2 antagonists, dose response, cell-based, HEK293, CRE-luciferase reporter, cherry pick, set 2 (AID 743343); format: functional;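 note: transfected cells were stimulated with diluted bursicon conditioned medium after compound addition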
[12] = target: T3, Heat shock factor protein 1 (Mus musculus, UniProt P38532); test: inhibition of MG132-induced HSE-luciferase signal, confirmation, cell-based, NIH3T3, luminescence, dose retest (AID 2382); format: functional;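 note: NIH3T3 fibroblasts with HSF1-driven luciferase reporter stressed by proteasome inhibitor MG132; luminescence from HSF1-driven luciferase expression after 8 hours of MG132 stress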
T3 sequence (P38532 whole entry): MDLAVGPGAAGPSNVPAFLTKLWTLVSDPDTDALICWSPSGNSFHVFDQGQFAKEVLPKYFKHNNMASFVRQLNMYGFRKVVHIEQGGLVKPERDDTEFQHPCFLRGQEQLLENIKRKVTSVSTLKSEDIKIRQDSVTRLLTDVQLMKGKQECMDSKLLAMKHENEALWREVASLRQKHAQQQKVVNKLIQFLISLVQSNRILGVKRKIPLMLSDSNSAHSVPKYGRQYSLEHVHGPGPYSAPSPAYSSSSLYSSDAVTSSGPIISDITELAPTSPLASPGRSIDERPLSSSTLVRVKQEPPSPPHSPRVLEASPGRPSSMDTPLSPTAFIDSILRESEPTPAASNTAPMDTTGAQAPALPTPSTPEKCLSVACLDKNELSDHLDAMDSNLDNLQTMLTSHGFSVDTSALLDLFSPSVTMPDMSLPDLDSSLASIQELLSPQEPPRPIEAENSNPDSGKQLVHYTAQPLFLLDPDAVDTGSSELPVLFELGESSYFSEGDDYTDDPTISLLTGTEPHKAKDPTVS

[13] = HepG2 cell cytotoxicity, dose response, cytotoxicity control, plate reader, cherry-pick, antagonist series (AID 743416); format: functional, cell-based
[14] = HEK293 cell cytotoxicity, dose response, cytotoxicity control, plate reader, cherry-picked samples (AID 743446); format: functional, cell-based
[15] = inhibitors of SNCA 5'UTR-driven reporter translation, confirmation, H4 neuroglioma cells, luminescence (AID 1988); format: functional, cell-based
[16] = A549 cell cytotoxicity, dose response, cytotoxicity control, plate reader, cherry-pick, antagonist series (AID 743412); format: functional, cell-based
[17] = Luminescence Cell-Based Dose Response HTS to Identify Inhibitors of 5'UTR Stem-Loop Driven Prion Protein mRNA Translation in H4 Neuroglioblastoma Cells. [Related pubchem assays: 1827 (Project Summary), 1813 (Primary HTS)]; format: functional
[18] = MC4R antagonists, dose response, counter-screen for LGR2 antagonist project, cell-based, plate reader, cherry pick (AID 743444); format: functional;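 note: transfected HEK 293 cells stimulated with alpha-MSH peptide; potency of inhibitors of the alpha-MSH evoked signal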
[19] = HEK293T cytotoxicity, dose response, cytotoxicity control for miR-122 modulator project, cell-based, inhibitor set, cherry-pick, set 2 (AID 720697); format: functional
[20] = inhibitors of TNFa-stimulated NF-kB luciferase reporter, dose response, selectivity assay for EBV LMP1 NF-kB inhibitor project, HEK293 LMP1 reporter cells, dry powder, set 2 (AID 624369); format: functional
H4 = test: Luminescence Cell-Based Dose Response HTS to Identify Activators of 5'UTR Stem-Loop Driven Prion Protein mRNA Translation in H4 Neuroglioblastoma Cells. [Related pubchem assays: 1829 (Project Summary), 1814 (Primary HTS)]; format: functional; details: Homo sapiens
[21] = target: T4, Sentrin-specific protease 8 (Homo sapiens, UniProt Q96LD8); format: functional
T4 sequence (Q96LD8 whole entry): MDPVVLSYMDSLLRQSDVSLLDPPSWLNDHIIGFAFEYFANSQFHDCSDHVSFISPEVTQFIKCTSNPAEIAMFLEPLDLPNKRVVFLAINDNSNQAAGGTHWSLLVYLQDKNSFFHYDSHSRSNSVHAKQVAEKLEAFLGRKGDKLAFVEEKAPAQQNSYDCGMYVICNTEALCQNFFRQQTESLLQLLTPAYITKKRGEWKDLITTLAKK

[22] = target: T4, Sentrin-specific protease 8; format: functional; remark: listed apart in the source
[23] = Luminescence Cell-Based Dose Response HTS to Identify Activators of Luciferase Translation or Activity in H4 […] Cells. [Related pubchem assays: 1829 (Project Summary), 1814 (Primary HTS)]; format: functional
[24] = Luminescence Cell-Based Dose Confirmation HTS to Identify Activators of 5'UTR Stem-Loop Driven Alpha-Synuclein mRNA Translation in H4 Neuroglioblastoma Cells. [Related pubchem assays: 1829 (Project Summary), 1814 (Primary HTS)]; format: functional
[25] = target: T5, DNA repair and recombination protein RAD54-like (Homo sapiens, UniProt Q92698); test: inhibitors of human RAD54 branch migration, confirmation, biochemical, fluorescence, cherry-picked samples, dose series (AID 651657); format: functional
T5 sequence (Q92698 whole entry): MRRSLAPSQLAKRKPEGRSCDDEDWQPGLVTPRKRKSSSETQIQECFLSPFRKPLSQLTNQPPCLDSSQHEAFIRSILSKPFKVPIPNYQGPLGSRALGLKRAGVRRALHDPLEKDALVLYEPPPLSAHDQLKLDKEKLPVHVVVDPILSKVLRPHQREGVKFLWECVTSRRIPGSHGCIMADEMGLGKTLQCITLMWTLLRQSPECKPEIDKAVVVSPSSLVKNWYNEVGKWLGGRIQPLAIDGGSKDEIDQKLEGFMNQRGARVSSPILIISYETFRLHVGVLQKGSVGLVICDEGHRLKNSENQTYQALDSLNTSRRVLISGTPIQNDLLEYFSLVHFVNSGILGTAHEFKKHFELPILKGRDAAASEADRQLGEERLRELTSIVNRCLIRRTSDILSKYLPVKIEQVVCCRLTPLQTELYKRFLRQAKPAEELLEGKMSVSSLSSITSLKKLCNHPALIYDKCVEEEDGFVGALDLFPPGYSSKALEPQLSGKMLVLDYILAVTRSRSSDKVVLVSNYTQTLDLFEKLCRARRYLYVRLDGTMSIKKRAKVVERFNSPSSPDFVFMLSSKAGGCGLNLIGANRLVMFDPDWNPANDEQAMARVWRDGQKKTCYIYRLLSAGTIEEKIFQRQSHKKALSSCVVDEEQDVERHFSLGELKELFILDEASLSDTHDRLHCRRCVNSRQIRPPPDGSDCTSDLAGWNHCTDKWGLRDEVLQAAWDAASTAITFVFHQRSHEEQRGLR

Beta-lactamase [26] = target: T6, Beta-lactamase (Pseudomonas aeruginosa, UniProt Q79MP6); test: IMP-1 metallo-beta-lactamase inhibitors, dose response, selectivity assay for VIM-2 inhibitor project, biochemical, epi-absorbance (AID 1920)
T6 sequence (Q79MP6 whole entry): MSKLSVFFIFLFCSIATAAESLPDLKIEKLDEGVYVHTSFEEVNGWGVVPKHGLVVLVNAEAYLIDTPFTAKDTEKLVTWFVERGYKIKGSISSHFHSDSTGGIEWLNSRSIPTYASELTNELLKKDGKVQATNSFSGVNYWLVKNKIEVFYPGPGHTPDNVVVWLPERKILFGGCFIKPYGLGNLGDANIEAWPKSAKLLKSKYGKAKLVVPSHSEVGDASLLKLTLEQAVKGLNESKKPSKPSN

Beta-lactamase [27] = target: T6, Beta-lactamase; test: […] counterscreen for selective VIM-2 inhibitors: dose response biochemical high throughput screening assay to identify inhibitors of IMP-1 metallo-beta-lactamase.
Beta-lactamase [28] = target: Beta-lactamase (Salmonella choleraesuis (strain SC-B67), UniProt Q5J463); test: Epi-absorbance-based counterscreen for selective VIM-2 inhibitors: dose response biochemical high throughput screening assay to identify inhibitors of TEM-1 serine-beta-lactamase.
Beta-lactamase (Salmonella choleraesuis (strain SC-B67), UniProt Q5J463), sequence (Q5J463 whole entry): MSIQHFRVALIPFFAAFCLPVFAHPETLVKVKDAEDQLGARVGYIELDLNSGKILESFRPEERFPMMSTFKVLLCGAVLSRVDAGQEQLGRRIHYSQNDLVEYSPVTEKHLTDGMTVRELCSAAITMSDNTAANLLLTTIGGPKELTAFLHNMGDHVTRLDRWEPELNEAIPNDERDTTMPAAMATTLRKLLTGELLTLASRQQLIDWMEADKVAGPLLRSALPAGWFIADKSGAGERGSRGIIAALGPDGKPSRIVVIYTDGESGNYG

O=C(CSc1nnc2ccccn12)Nc1ncc(Cl)cc1Cl
EC50 [1]: > 91.2 µM (inactive)
EC50 [2]: > 91.2 µM (inactive)

N=C(N)NCCC[C@@H]1NC(=O)c2cc([N+](=O)[O-])cc(F)c2NCCCC[C@@H](C(N)=O)NC(=O)CNC1=O
AC50 [3]: 14.8 µM (active)

COc1ccccc1CCNCc1ccc(OC)c(OC)c1OC
IC50 [4]: 10.5 µM (inactive)
EC50 (cells [5]): > 29.9 µM (inactive)
IC50 (cells [6]): > 29.9 µM (inactive)
EC50 [7]: 2.37 µM (active)

Cc1ccc(C(S)=NCS(=O)(=O)c2ccc(C)cc2)cc1
IC50 [8]: 5.2 µM (active)

CN1C(=O)c2cc(NC(=O)c3ccc(C(F)(F)F)cc3)ccc2OC[C@@H]2O[C@@H](CC(=O)NCc3ccc4c(c3)OCO4)CC[C@@H]21
AC50 [9]: 13.8 µM (active)
AC50 [10]: 23.8 µM (active)

Cc1ccc(-c2nc(-c3ccccc3)no2)c(Cl)c1
AC50 [11]: 0.842 µM (active)
EC50 [12]: < 0.16 µM (active)
AC50 [13]: > 52 µM (inactive)
AC50 [14]: 39.7 µM (active)
EC50 [15]: 9.82 µM (inconclusive)
AC50 [16]: > 52 µM (inactive)
EC50 [17]: 8.33 µM (active)
AC50 [18]: 1.26 µM (active)

O=C(c1ccco1)N1CCN(C2CC(=O)N(c3ccccc3)C2=O)CC1 (centres undefined)
AC50 [19]: 5.02 µM (active)

C[C@@H]1CN([C@H](C)CO)S(=O)(=O)c2ccc(/C=C/c3ccccc3)cc2O[C@H]1CN(C)C(=O)NC1CCCCC1
AbsAC35 [20]: 64.61 µM

O=C(/C=C/NNC(=O)c1ccc(Cl)cc1)c1ccccc1
EC50 (H4): 49.6 µM (active)
IC50 [21]: > 100 µM (inactive)
IC50 [22]: 37.4 µM (active)
EC50 [23]: > 120 µM (not active)
EC50 [24]: > 120 µM (not active)

O=C(NCCc1ccccc1)C(=O)NCC1OCCN1S(=O)(=O)c1ccccc1 (centres undefined)
IC50 [4]: 11.8 µM (inactive)
EC50 (cells [5]): > 29.9 µM (inactive)
IC50 (cells [6]): > 29.9 µM (inactive)
EC50 [7]: 5.39 µM (active)

Nc1c(C(=O)N2CCOCC2)sc2nc3c(cc12)CCCC3
AC50 [11]: 2.38 µM (active)
AC50 [13]: > 52 µM (inactive)
AC50 [14]: > 52 µM (inactive)
AC50 [16]: > 52 µM (inactive)
AC50 [18]: 3.2 µM (active)

COc1ccc(C)c2sc(N(CCN(C)C)C(=O)c3ccc4ccccc4c3)nc12
AC50 [25]: 79.4 µM (active)
AC50 [3]: 14.1 µM (active)

O=C(NCCc1ccccc1Cl)[C@@H]1CCCN1C(=O)[C@@H](NC(=O)N1CCOCC1)C1CCCCC1
IC50 [4]: 6.35 µM (active)
EC50 (cells [5]): > 29.9 µM (inactive)
IC50 (cells [6]): > 29.9 µM (inactive)
EC50 [7]: 5.36 µM (active)

CCCc1cc(=O)oc2c3c(cc(OCC(=O)N4CCC[C@H]4C(=O)O)c12)OC(C)(C)CC3
IC50 (Beta-lactamase [26]): > 59.6 µM (inactive)
IC50 (Beta-lactamase [27]): > 59.6 µM (inactive)
IC50 (Beta-lactamase [28]): > 59.6 µM (inactive)

Cc1ccc(-c2c(C(=O)O)c(C(=O)O)c3n2CSC3)cc1
IC50 (Beta-lactamase [26]): > 59.6 µM (inactive)
IC50 (Beta-lactamase [27]): 15.7 µM (inactive)
IC50 (Beta-lactamase [28]): > 59.6 µM (inactive)

Clc1ccc(-c2nc3ccc(Cl)cn3c2Cc2ccsc2)cc1
EC50 [1]: > 91.2 µM (inactive)
EC50 [2]: > 91.2 µM (inactive)

CCNC(=O)C[C@H]1CC[C@@H]2[C@@H](COc3ccc(NC(=O)c4cccc(C(F)(F)F)c4)cc3C(=O)N2C)O1
AC50 [19]: 0.469 µM (active)
